Laboratory results taken from US5789431A, “Naphthoquinone antitumor compound and method” (The University of North Carolina at Chapel Hill, priority 1996, dated 1998).

Experiments:
MALME-3M = assay: in vitro melanoma cell growth inhibition (NCI screen)
M14 = assay: as above
SK-MEL-2 = assay: as above
DLD-1 = assay: in vitro colon cancer cell growth inhibition (NCI screen)
HCT-15 = assay: as above
SW 620 = assay: as above
ACHN = assay: in vitro renal cancer cell growth inhibition (NCI screen)
RXF-393 = assay: as above
IGROV1 = assay: in vitro ovarian cancer cell growth inhibition (NCI screen)
OVCAR-3 = assay: as above
OVCAR-4 = assay: as above; conditions: OVACR-4
LOX1MVI = assay: in vitro melanoma cell growth inhibition (NCI screen)
M19-MEL = assay: as above
SK-MEL-5 = assay: as above
UACC-257 = assay: as above
UACC-62 = assay: as above
CCRF-CEM = assay: in vitro leukemia cell growth inhibition (NCI screen)
HL-60(TB) = assay: as above
K-562 = assay: as above
MOLT-4 = assay: as above
SF-268 = assay: in vitro CNS cancer cell growth inhibition (NCI screen)
SF-539 = assay: as above
HCT-116 = assay: in vitro colon cancer cell growth inhibition (NCI screen)
HOP-92 = assay: in vitro non-small cell lung cancer cell growth inhibition (NCI screen)
NCI-H23 = assay: as above
NCI-H460 = assay: as above
LXFL 529 = assay: as above
U 251 = assay: in vitro CNS cancer cell growth inhibition (NCI screen)
HT 29 = assay: in vitro colon cancer cell growth inhibition (NCI screen)
SR = assay: in vitro leukemia cell growth inhibition (NCI screen)
COLO-205 = assay: in vitro colon cancer cell growth inhibition (NCI screen)
human tumor cell lines = type: cell-based; conditions: cancer cell line panel
NCI-H522 = assay: in vitro non-small cell lung cancer cell growth inhibition (NCI screen)
RPMI-8226 = assay: in vitro leukemia cell growth inhibition (NCI screen)
MCF7/ADR-RES = assay: in vitro breast cancer cell growth inhibition (NCI screen)
PC-3 = assay: in vitro prostate cancer cell growth inhibition (NCI screen)
T-47D = assay: in vitro breast cancer cell growth inhibition (NCI screen)

In the case of `O=C1c2ccccc2C(=O)c2[nH]c(Cc3ccc(F)cc3)nc21` [Compound 4c], the “cytotoxicity log GI50” value (MALME-3M) is reported as -4.84 M, the “cytotoxicity log GI50” value (M14) is reported as -4.82 M and the “cytotoxicity log GI50” value (SK-MEL-2) is reported as -4.86 M. The “cytotoxicity log GI50” value (DLD-1) was -5.40 M, the “cytotoxicity log GI50” value (HCT-15) was -5.19 M and the “cytotoxicity log GI50” value (SW 620) was -4.84 M. The “cytotoxicity log GI50” value (ACHN) was -4.85 M, the “cytotoxicity log GI50” value (RXF-393) was -5.16 M and the “cytotoxicity log GI50” value (IGROV1) was -4.90 M. The “cytotoxicity log GI50” value (OVCAR-3) was -5.27 M and the “cytotoxicity log GI50” value (OVCAR-4) was -4.83 M.

With `CCC(C)n1c(C)nc2c1C(=O)c1ccccc1C2=O` (stereo not drawn) [Compound 6] the “cytotoxicity log GI50” value (LOX1MVI) was -4.64 M, the “cytotoxicity log GI50” value (MALME-3M) was -4.49 M and the “cytotoxicity log GI50” value (M19-MEL) was -4.74 M. The “cytotoxicity log GI50” value (SK-MEL-5) was -4.57 M, the “cytotoxicity log GI50” value (UACC-257) was -4.55 M and the “cytotoxicity log GI50” value (UACC-62) was -4.55 M. The “cytotoxicity log GI50” value (CCRF-CEM) was -4.43 M, the “cytotoxicity log GI50” value (HL-60(TB)) was -4.84 M and the “cytotoxicity log GI50” value (K-562) was -4.47 M. For the same compound, the “cytotoxicity log GI50” value (MOLT-4) was -4.55 M, the “cytotoxicity log GI50” value (SF-268) was -4.51 M and the “cytotoxicity log GI50” value (SF-539) was -4.49 M. For the same compound, the “cytotoxicity log GI50” value (DLD-1) was -4.57 M, the “cytotoxicity log GI50” value (HCT-116) was -4.50 M and the “cytotoxicity log GI50” value (HCT-15) was -4.57 M. For the same compound, the “cytotoxicity log GI50” value (RXF-393) was -4.57 M, the “cytotoxicity log GI50” value (OVCAR-3) was -4.49 M and the “cytotoxicity log GI50” value (HOP-92) was -4.66 M. For the same compound, the “cytotoxicity log GI50” value (NCI-H23) was -4.48 M, the “cytotoxicity log GI50” value (NCI-H460) was -4.71 M and the “cytotoxicity log GI50” value (LXFL 529) was -4.48 M.

With `CCCC(C)n1c(C)nc2c1C(=O)c1ccccc1C2=O` (stereo not drawn) [Compound 9] the “cytotoxicity log GI50” value (LOX1MVI) was -5.06 M, the “cytotoxicity log GI50” value (M19-MEL) was -4.90 M and the “cytotoxicity log GI50” value (SK-MEL-5) was -4.88 M. The “cytotoxicity log GI50” value (UACC-62) was -5.17 M, the “cytotoxicity log GI50” value (K-562) was -5.07 M and the “cytotoxicity log GI50” value (SF-539) was -4.89 M. For the same compound, the “cytotoxicity log GI50” value (U 251) was -4.91 M, the “cytotoxicity log GI50” value (DLD-1) was -5.07 M and the “cytotoxicity log GI50” value (HCT-116) was -5.26 M. For the same compound, the “cytotoxicity log GI50” value (HCT-15) was -5.22 M, the “cytotoxicity log GI50” value (HT 29) was -4.76 M and the “cytotoxicity log GI50” value (HOP-92) was -4.78 M. For the same compound, the “cytotoxicity log GI50” value (NCI-H23) was -4.81 M, the “cytotoxicity log GI50” value (NCI-H460) was -5.34 M and the “cytotoxicity log GI50” value (LXFL 529) was -4.90 M.

In the case of `Cc1nc2c(n1CCC(C)C)C(=O)c1ccccc1C2=O` [Compound 11], the “cytotoxicity log GI50” value (LOX1MVI) is reported as -4.83 M, the “cytotoxicity log GI50” value (M19-MEL) is reported as -4.84 M and the “cytotoxicity log GI50” value (SK-MEL-5) is reported as -4.84 M. For the same compound, the “cytotoxicity log GI50” value (UACC-62) was -4.91 M, the “cytotoxicity log GI50” value (CCRF-CEM) was -4.87 M and the “cytotoxicity log GI50” value (HL-60(TB)) was -5.22 M. The “cytotoxicity log GI50” value (K-562) was -5.09 M, the “cytotoxicity log GI50” value (MOLT-4) was -5.08 M and the “cytotoxicity log GI50” value (SR) was -5.33 M. The “cytotoxicity log GI50” value (SF-268) was -4.84 M, the “cytotoxicity log GI50” value (SF-539) was -4.92 M and the “cytotoxicity log GI50” value (U 251) was -4.90 M. The “cytotoxicity log GI50” value (COLO-205) was -4.84 M, the “cytotoxicity log GI50” value (DLD-1) was -4.95 M and the “cytotoxicity log GI50” value (HCT-116) was -5.17 M. The “cytotoxicity log GI50” value (HCT-15) was -4.93 M, the “cytotoxicity log GI50” value (NCI-H460) was -5.22 M and the “cytotoxicity log GI50” value (LXFL 529) was -4.88 M.

For `CCC(C)Cn1c(C)nc2c1C(=O)c1ccccc1C2=O` (stereo not drawn) [Compound 13], the “cytotoxicity log GI50” value (LOX1MVI) was -4.71 M, the “cytotoxicity log GI50” value (M19-MEL) was -4.74 M and the “cytotoxicity log GI50” value (SK-MEL-5) was -4.82 M. For the same compound, the “cytotoxicity log GI50” value (UACC-62) was -5.00 M, the “cytotoxicity log GI50” value (HL-60(TB)) was -5.30 M and the “cytotoxicity log GI50” value (K-562) was -5.27 M. The “cytotoxicity log GI50” value (MOLT-4) was -5.54 M, the “cytotoxicity log GI50” value (SR) was -5.55 M and the “cytotoxicity log GI50” value (SF-539) was -4.75 M. The “cytotoxicity log GI50” value (COLO-205) was -4.70 M, the “cytotoxicity log GI50” value (HCT-15) was -4.76 M and the “cytotoxicity log GI50” value (HOP-92) was -4.69 M. The “cytotoxicity log GI50” value (NCI-H23) was -4.68 M, the “cytotoxicity log GI50” value (NCI-H460) was -4.83 M and the “cytotoxicity log GI50” value (LXFL 529) was -4.77 M.

For `Cc1nc2c(n1CC(C)(C)C)C(=O)c1ccccc1C2=O` [Compound 14], the “cytotoxicity log GI50” value (LOX1MVI) was -4.25 M, the “cytotoxicity log GI50” value (SK-MEL-5) was -4.37 M and the “cytotoxicity log GI50” value (HL-60(TB)) was -4.44 M. The “cytotoxicity log GI50” value (K-562) was -4.25 M, the “cytotoxicity log GI50” value (OVCAR-3) was -4.18 M and the “cytotoxicity log GI50” value (HOP-92) was -4.78 M. The “cytotoxicity log GI50” value (NCI-H460) was -4.23 M.

`Cc1nc2c(n1CCO)C(=O)c1ccccc1C2=O` [Compound 16] was tested, and the “cytotoxicity against tumor cells (in words)” value (human tumor cell lines) was “comparable to those of compounds 6-14”, the “cytotoxicity log GI50” value (LOX1MVI) was -4.63 M and the “cytotoxicity log GI50” value (MALME-3M) was -4.93 M. The “cytotoxicity log GI50” value (M14) was -4.67 M, the “cytotoxicity log GI50” value (M19-MEL) was -5.59 M and the “cytotoxicity log GI50” value (SK-MEL-2) was -4.74 M. For the same compound, the “cytotoxicity log GI50” value (SK-MEL-5) was -4.95 M, the “cytotoxicity log GI50” value (UACC-257) was -4.78 M and the “cytotoxicity log GI50” value (UACC-62) was -4.78 M. For the same compound, the “cytotoxicity log GI50” value (HL-60(TB)) was -4.70 M, the “cytotoxicity log GI50” value (K-562) was -4.59 M and the “cytotoxicity log GI50” value (SR) was -4.58 M. The “cytotoxicity log GI50” value (COLO-205) was -4.72 M, the “cytotoxicity log GI50” value (HCT-116) was -4.72 M and the “cytotoxicity log GI50” value (ACHN) was -4.60 M. The “cytotoxicity log GI50” value (IGROV1) was -4.69 M, the “cytotoxicity log GI50” value (OVCAR-3) was -4.61 M and the “cytotoxicity log GI50” value (OVCAR-4) was -4.58 M. For the same compound, the “cytotoxicity log GI50” value (NCI-H23) was -4.82 M and the “cytotoxicity log GI50” value (NCI-H522) was -4.84 M.

`CCC(C)NC1=C(NC(C)=O)C(=O)c2ccccc2C1=O` (stereo not drawn) [Compound 30] was tested, and the “cytotoxicity log GI50” value (LOX1MVI) was -4.81 M, the “cytotoxicity log GI50” value (CCRF-CEM) was -4.66 M and the “cytotoxicity log GI50” value (HL-60(TB)) was -4.76 M. The “cytotoxicity log GI50” value (K-562) was -4.36 M, the “cytotoxicity log GI50” value (RPMI-8226) was -4.87 M and the “cytotoxicity log GI50” value (DLD-1) was -4.56 M. For the same compound, the “cytotoxicity log GI50” value (HCT-15) was -4.34 M, the “cytotoxicity log GI50” value (SW 620) was -4.65 M and the “cytotoxicity log GI50” value (OVCAR-3) was -4.39 M.

In the case of `CCCC(C)NC1=C(NC(C)=O)C(=O)c2ccccc2C1=O` (stereo not drawn) [Compound 33], the “cytotoxicity log GI50” value (MALME-3M) is reported as -4.44 M, the “cytotoxicity log GI50” value (M19-MEL) is reported as -4.20 M and the “cytotoxicity log GI50” value (SK-MEL-5) is reported as -4.13 M. For the same compound, the “cytotoxicity log GI50” value (HOP-92) was -4.32 M and the “cytotoxicity log GI50” value (NCI-H522) was -4.19 M.

`CCC(CC)NC1=C(NC(C)=O)C(=O)c2ccccc2C1=O` [Compound 34] was tested, and the “cytotoxicity log GI50” value (HOP-92) was -6.47 M.

`CC(=O)NC1=C(NCCC(C)C)C(=O)c2ccccc2C1=O` [Compound 35] was tested, and the “cytotoxicity log GI50” value (ACHN) was -7.52 M.

With `CCC(C)CNC1=C(NC(C)=O)C(=O)c2ccccc2C1=O` (stereo not drawn) [Compound 37] the “cytotoxicity log GI50” value (MALME-3M) was -4.45 M, the “cytotoxicity log GI50” value (M19-MEL) was -4.68 M and the “cytotoxicity log GI50” value (SK-MEL-5) was -4.50 M. For the same compound, the “cytotoxicity log GI50” value (OVCAR-3) was -4.25 M and the “cytotoxicity log GI50” value (NCI-H23) was -4.17 M.

`CCNC1=C(NC(=O)CC)C(=O)c2ccccc2C1=O` [Compound 45] was tested, and the “cytotoxicity log GI50” value (MALME-3M) was -4.64 M, the “cytotoxicity log GI50” value (M14) was -4.50 M and the “cytotoxicity log GI50” value (SK-MEL-5) was -4.27 M. The “cytotoxicity log GI50” value (UACC-257) was -4.52 M, the “cytotoxicity log GI50” value (CCRF-CEM) was -4.25 M and the “cytotoxicity log GI50” value (COLO-205) was -4.33 M. The “cytotoxicity log GI50” value (HCT-116) was -4.44 M, the “cytotoxicity log GI50” value (HCT-15) was -4.19 M and the “cytotoxicity log GI50” value (HT 29) was -4.46 M. For the same compound, the “cytotoxicity log GI50” value (SW 620) was -4.22 M, the “cytotoxicity log GI50” value (RXF-393) was -4.32 M and the “cytotoxicity log GI50” value (OVCAR-3) was -4.49 M. For the same compound, the “cytotoxicity log GI50” value (MCF7/ADR-RES) was -4.23 M, the “cytotoxicity log GI50” value (PC-3) was -4.37 M and the “cytotoxicity log GI50” value (NCI-H522) was -4.34 M.

`O=C(O)CCc1nc2c(n1-c1ccccc1)C(=O)c1ccccc1C2=O` [Compound 60] was tested, and the “cytotoxicity log GI50” value (HCT-116) was -4.30 M, the “cytotoxicity log GI50” value (T-47D) was -4.19 M and the “cytotoxicity log GI50” value (HOP-92) was -7.65 M. For the same compound, the “cytotoxicity log GI50” value (NCI-H522) was -4.42 M.

In the case of `COc1ccc(-n2c(CCC(=O)O)nc3c2C(=O)c2ccccc2C3=O)cc1` [Compound 62], the “cytotoxicity log GI50” value (LOX1MVI) is reported as -4.55 M, the “cytotoxicity log GI50” value (T-47D) is reported as -4.48 M and the “cytotoxicity log GI50” value (NCI-H522) is reported as -4.46 M.
